Structures are written as SMILES.

From US4138488A, “Diphenylmethyl picolinic acid derivatives and their use as anti-acne agents” (Schering Corporation, priority 1977, dated 1979) come the findings set out here.

The nature of the test: In vivo topical activity.

As for `Oc1c(Cl)cc(Cl)c(Cl)c1Cc1c(O)c(Cl)cc(Cl)c1Cl` [hexachlorophene], the “in vivo topical activity” value is given as “neither hexachlorophene nor tetracycline exhibit substantial in vivo topical activity”.

As to `CN(C)C1C(=O)C(C(N)=O)=C(O)C2(O)C(=O)C3=C(O)c4c(O)cccc4C(C)(O)C3CC12` (centres unmarked) [tetracycline], the “in vivo topical activity” value is “neither hexachlorophene nor tetracycline exhibit substantial in vivo topical activity”.
